According to US6407071B1, “Method and composition for treating malignant cells” (Co-Enzyme Technology Ltd., priority 1998, dated 2002):
“And” between values parts separate entries of the source, which are not always exact repeats. Identical values can stand only once.

Tests used:
human tumor cells = test: Oxidizing agents found toxic to human tumor cells; format: cell-based
[1] = system: localized malignant melanomas; settings: cited from earlier work
cancer cells = test: Toxicity to cancer cells in vitro relative to para-methoxy phenol; format: cell-based; settings: compared with para-methoxy phenol
prostate cancer = test: Six month study of P.S.A. levels in prostate cancer patients: glyceraldehyde, Glycosole and the combination; format: in vivo, human; parameters: key to Patient dead (#): # Dead; P.S.A. Levels during 6 month from initiation of treatment, 1 mo. / P.S.A. Levels during 6 month from initiation of treatment, 2 mo. / P.S.A. Levels during 6 month from initiation of treatment, 3 mo. / P.S.A. Levels during 6 month from initiation of treatment, 4 mo. / P.S.A. Levels during 6 month from initiation of treatment, 5 mo. / P.S.A. Levels during 6 month from initiation of treatment, 6 mo.: unit not given here
Protocol: A six month study was conducted comparing the anti-cancer effect of Glycosole (Glyc., the glucuronide of para-methoxy-phenol), glyceraldehyde, and a combination of the two compounds. These compounds were administered to patients suffering from prostate cancer separately and together. All of the patients suffered from bone metastases and no longer responded to conventional hormone therapy. Patients were administered either 3 grams glyceraldehyde per day, 6 grams per day of Glycosole, or a combination of both agents.

For `COC(=O)c1cc(O)c(O)c(O)c1` [methyl gallate], the “Toxicity to human tumor cells” value (human tumor cells) was “toxic to human tumor cells”.

In the case of `COc1ccc(O)cc1` [4-hydroxyanisole], the “Effect on localized malignant melanomas” value ([1]; intra-arterial infusion) is given as “underwent regression”, the “Therapeutic effect in malignant melanoma” value ([1]; intravenous administration) is given as “not therapeutically effective” and the “Toxicity to human tumor cells” value (human tumor cells) is given as “toxic to human tumor cells”.

For `CCC(C)(C)c1ccc(O[C@@H]2O[C@H](C(=O)O)[C@@H](O)[C@H](O)[C@H]2O)cc1` [4-tert-amyl phenyl glucuronide], the “Toxicity to cancer cells in vitro relative to para-methoxy phenol” value (cancer cells) was 5.5 times.

For 4-benzomethoxy phenol, the “Toxicity to human tumor cells” value (human tumor cells) was “toxic to human tumor cells”.

For `N[C@@H](Cc1ccc(O)c(O)c1)C(=O)O` [L-3,4-dihydroxyphenylalanine], the “Toxicity to human tumor cells” value (human tumor cells) was “toxic to human tumor cells”.

In the case of `CCC(C)(C)c1ccc(O)cc1` [4-tert-amyl phenol], the “Toxicity to human tumor cells” value (human tumor cells) is reported as “toxic to human tumor cells”.

For `O=CC(O)CO` (stereo not shown) [Glycer Aldehyde, glyceraldehyde], the “P.S.A. Levels during 6 month from initiation of treatment, 1 mo.” value (prostate cancer; 1 mo., single patients, bone metastases, glyceraldehyde 3 g/day, Glycosole 6 g/day or both) was 760 and 190 and 2250 and 340 and 910 and 150, the “P.S.A. Levels during 6 month from initiation of treatment, 2 mo.” value (prostate cancer; 2 mo., single patients, glyceraldehyde 3 g/day, Glycosole 6 g/day or both) was 680 and 180 and 1100 and 380 and 850 and 90 and the “P.S.A. Levels during 6 month from initiation of treatment, 3 mo.” value (prostate cancer; 3 mo., single patients, glyceraldehyde 3 g/day, Glycosole 6 g/day or both) was 600 and 150 and 1000 and 310 and 740 and 80. For the same compound, the “P.S.A. Levels during 6 month from initiation of treatment, 4 mo.” value (prostate cancer; 4 mo., single patients, glyceraldehyde 3 g/day, Glycosole 6 g/day or both) was 580 and 145 and 980 and 280 and 760 and 80, the “P.S.A. Levels during 6 month from initiation of treatment, 5 mo.” value (prostate cancer; 5 mo., single patients, glyceraldehyde 3 g/day, Glycosole 6 g/day or both) was 540 and 140 and 220 and 680 and 64 and the “P.S.A. Levels during 6 month from initiation of treatment, 6 mo.” value (prostate cancer; 6 mo., single patients, glyceraldehyde 3 g/day, Glycosole 6 g/day or both) was 420 and 100 and 180 and 360 and 60. For the same compound, the “P.S.A. Levels during 6 month from initiation of treatment, 10 mo.” value (prostate cancer; 10 mo., single patients) was 380 and 480 and 600, the “P.S.A. Levels during 6 month from initiation of treatment, 11 mo.” value (prostate cancer; 11 mo., single patients) was 920 and 700 and the “P.S.A. Levels during 6 month from initiation of treatment, 12 mo.” value (prostate cancer; 12 mo., single patients) was 846. For the same compound, the “Patient dead (#)” value (prostate cancer; marked in column 5 mo.) was “#”, the “Patient dead (#)” value (prostate cancer; marked in column 11 mo.) was “#” and the “Patient dead (#)” value (prostate cancer; marked in column 12 mo.) was “#”. The “Response of patients to the treatment” value (prostate cancer; prostate cancer with bone metastases, 3 grams glyceraldehyde per day, 6 grams per day of Glycosole, or both) was “None of the patients administered glyceraldehyde alone responded”.

For `Oc1ccc(O)cc1` [hydroquinone], the “Toxicity to human tumor cells” value (human tumor cells) was “toxic to human tumor cells”.

With `N[C@@H](Cc1ccc(O)cc1)C(=O)O` [tyrosine] the “Toxicity to human tumor cells” value (human tumor cells) was “toxic to human tumor cells”.

For `Oc1cccc(O)c1` [resorcinol], the “Toxicity to human tumor cells” value (human tumor cells) was “toxic to human tumor cells”.

For `CCCOc1ccc(O)cc1` [4-propoxy phenol], the “Toxicity to human tumor cells” value (human tumor cells) was “toxic to human tumor cells”.

For `NCCc1ccc(O)c(O)c1` [dopamine, 3,4-dihydroxyphenethylanine], the “Toxicity to human tumor cells” value (human tumor cells) was “toxic to human tumor cells”.

For `COc1ccc(O)c(C(C)(C)C)c1` [butylated hydroxyanisole], the “Toxicity to human tumor cells” value (human tumor cells) was “toxic to human tumor cells”.

In the case of `N[C@@H](Cc1cc(O)c(O)cc1O)C(=O)O` [6-hydroxydopa, 3,4,6-trihydroxyphenylalanine], the “Toxicity to human tumor cells” value (human tumor cells) is reported as “toxic to human tumor cells”.
